From ChEMBL document CHEMBL5576150, “Synthesis and Biological Evaluation of Pyrazole-Pyrimidones as a New Class of Correctors of the Cystic Fibrosis Transmembrane Conductance Regulator (CFTR)” (J Med Chem, 2024)
The source made the active and inactive calls. No cut-off for these calls is given here.

How the values were obtained:
[1] = system: Cystic fibrosis transmembrane conductance regulator (Homo sapiens), P13569 [F508del]; experiment: Corrector activity at 3xHA-tagged full-length human CFTR F508del mutant expressed in human CFBE41o- cells assessed as restoration of plasma membrane density of channel at 10 uM incubated for 24 hrs in presence of VX-809/N-(5-(4-fluorobenzyl)thiazol-2-yl)-2,5-dimethylfuran-3-carboxamide by ELISA relative to wild-type CFTR level; format: cell membranes; conditions: filed as activator
[2] = system: Cystic fibrosis transmembrane conductance regulator (Homo sapiens), P13569 [F508del]; experiment: Corrector activity at CFTR F508del mutant in patient-derived human HBE cells assessed as forskolin/VX-770-induced transepithelial short-circuit current in presence of VX-809/N-(5-(4-fluorobenzyl)thiazol-2-yl)-2,5-dimethylfuran-3-carboxamide by electrophysiological method (reference value: 16 %); format: cell-based; conditions: filed as activator
[3] = system: Cystic fibrosis transmembrane conductance regulator (Homo sapiens), P13569 [F508del]; experiment: Corrector activity at 3xHA-tagged full-length human CFTR F508del mutant expressed in human CFBE41o- cells assessed as restoration of plasma membrane density of channel incubated for 24 hrs in presence of VX-809 by ELISA; format: cell membranes; conditions: filed as activator
[4] = system: Cystic fibrosis transmembrane conductance regulator (Homo sapiens), P13569 [S492F]; experiment: Corrector activity at 3xHA-tagged full-length human CFTR S492F mutant expressed in human CFBE41o- cells assessed as restoration of plasma membrane density of channel in presence of VX-809/N-(5-(4-fluorobenzyl)thiazol-2-yl)-2,5-dimethylfuran-3-carboxamide by ELISA; format: cell membranes; conditions: filed as activator
[5] = system: Cystic fibrosis transmembrane conductance regulator (Homo sapiens), P13569 [S13F]; experiment: Corrector activity at 3xHA-tagged full-length human CFTR S13F mutant expressed in human CFBE41o- cells assessed as restoration of plasma membrane density of channel in presence of VX-661 incubated for 24 hrs by ELISA; format: cell membranes; conditions: filed as activator
[6] = system: Cystic fibrosis transmembrane conductance regulator (Homo sapiens), P13569 [S492F]; experiment: Corrector activity at 3xHA-tagged full-length human CFTR S492F mutant expressed in human CFBE41o- cells assessed as restoration of plasma membrane density of channel at 10 uM incubated for 24 hrs in presence of VX-661/VX-445 by ELISA; format: cell membranes; conditions: filed as activator
[7] = system: Cystic fibrosis transmembrane conductance regulator (Homo sapiens), P13569 [F508del]; experiment: Corrector activity at 3xHA-tagged full-length human CFTR F508del mutant expressed in human CFBE41o- cells assessed as restoration of plasma membrane density of channel incubated for 24 hrs in presence of VX-661 by ELISA; format: cell membranes; conditions: filed as activator
[8] = system: Cystic fibrosis transmembrane conductance regulator (Homo sapiens), P13569 [S13F]; experiment: Corrector activity at 3xHA-tagged full-length human CFTR S13F mutant expressed in human CFBE41o- cells assessed as restoration of plasma membrane density of channel in presence of VX-809/N-(5-(4-fluorobenzyl)thiazol-2-yl)-2,5-dimethylfuran-3-carboxamide by ELISA; format: cell membranes; conditions: filed as activator
[9] = system: Cystic fibrosis transmembrane conductance regulator (Homo sapiens), P13569 [N1303K]; experiment: Corrector activity at 3xHA-tagged full-length human CFTR N1303K mutant expressed in human CFBE41o- cells assessed as restoration of plasma membrane density of channel in presence of VX-809/N-(5-(4-fluorobenzyl)thiazol-2-yl)-2,5-dimethylfuran-3-carboxamide by ELISA relative to wild-type CFTR level; format: cell membranes; conditions: filed as activator
[10] = system: Cystic fibrosis transmembrane conductance regulator (Homo sapiens), P13569 [R560T]; experiment: Corrector activity at 3xHA-tagged full-length human CFTR R560T mutant expressed in human CFBE41o- cells assessed as restoration of plasma membrane density of channel in presence of VX-809/N-(5-(4-fluorobenzyl)thiazol-2-yl)-2,5-dimethylfuran-3-carboxamide by ELISA; format: cell membranes
[11] = system: Cystic fibrosis transmembrane conductance regulator (Homo sapiens), P13569 [F508del]; experiment: Corrector activity at 3xHA-tagged full-length human CFTR F508del mutant expressed in human CFBE41o- cells assessed as restoration of plasma membrane density of channel in presence of N-(5-(4-fluorobenzyl)thiazol-2-yl)-2,5-dimethylfuran-3-carboxamide incubated for 24 hrs by ELISA; format: cell membranes; conditions: filed as activator
[12] = system: Cystic fibrosis transmembrane conductance regulator (Homo sapiens), P13569 [S492F]; experiment: Corrector activity at 3xHA-tagged full-length human CFTR S492F mutant expressed in human CFBE41o- cells assessed as rescue of forskolin/VX-770-induced transepithelial short-circuit current at 10 uM measured after 24 hrs in presence of VX-809/N-(5-(4-fluorobenzyl)thiazol-2-yl)-2,5-dimethylfuran-3-carboxamide by electrophysiological method; format: cell-based; conditions: filed as activator
[13] = system: Cystic fibrosis transmembrane conductance regulator (Homo sapiens), P13569 [S492F]; experiment: Corrector activity at 3xHA-tagged full-length human CFTR S492F mutant expressed in human CFBE41o- cells assessed as restoration of plasma membrane density of channel in presence of N-(5-(4-fluorobenzyl)thiazol-2-yl)-2,5-dimethylfuran-3-carboxamide incubated for 24 hrs by ELISA; format: cell membranes; conditions: filed as activator
[14] = system: Cystic fibrosis transmembrane conductance regulator (Homo sapiens), P13569 [M1101K]; experiment: Corrector activity at 3xHA-tagged full-length human CFTR M1101K mutant expressed in human CFBE41o- cells assessed as restoration of plasma membrane density of channel in presence of VX-809/N-(5-(4-fluorobenzyl)thiazol-2-yl)-2,5-dimethylfuran-3-carboxamide by ELISA relative to wild-type CFTR level; format: cell membranes; conditions: filed as activator
[15] = system: Cystic fibrosis transmembrane conductance regulator (Homo sapiens), P13569 [S13F]; experiment: Corrector activity at 3xHA-tagged full-length human CFTR S13F mutant expressed in human CFBE41o- cells assessed as restoration of plasma membrane density of channel in presence of VX-809 incubated for 24 hrs by ELISA; format: cell membranes; conditions: filed as activator
[16] = system: Cystic fibrosis transmembrane conductance regulator (Homo sapiens), P13569 [F508del]; experiment: Corrector activity at 3xHA-tagged full-length human CFTR F508del mutant expressed in human CFBE41o- cells assessed as restoration of plasma membrane density of channel at 10 uM incubated for 24 hrs in presence of VX-661/VX-445 by ELISA; format: cell membranes; conditions: filed as activator
[17] = system: Cystic fibrosis transmembrane conductance regulator (Homo sapiens), P13569 [S492F]; experiment: Corrector activity at 3xHA-tagged full-length human CFTR S492F mutant expressed in human CFBE41o- cells assessed as restoration of plasma membrane density of channel in presence of VX-661 incubated for 24 hrs by ELISA; format: cell membranes; conditions: filed as activator
[18] = system: Cystic fibrosis transmembrane conductance regulator (Homo sapiens), P13569 [F508del]; experiment: Corrector activity at 3xHA-tagged full-length human CFTR F508del mutant expressed in human CFBE41o- cells assessed as restoration of plasma membrane density of channel incubated for 24 hrs in presence of VX-445 by ELISA; format: cell membranes
[19] = system: Cystic fibrosis transmembrane conductance regulator (Homo sapiens), P13569 [S13F]; experiment: Corrector activity at 3xHA-tagged full-length human CFTR S13F mutant expressed in human CFBE41o- cells assessed as restoration of plasma membrane density of channel at 10 uM incubated for 24 hrs in presence of VX-445 by ELISA; format: cell membranes
[20] = system: Cystic fibrosis transmembrane conductance regulator (Homo sapiens), P13569 [F508del]; experiment: Inhibition of activity of 3xHA-tagged full-length human CFTR F508del mutant expressed in human CFBE41o- cells in presence of VX-809/N-(5-(4-fluorobenzyl)thiazol-2-yl)-2,5-dimethylfuran-3-carboxamide; format: cell-based
[21] = system: Cystic fibrosis transmembrane conductance regulator (Homo sapiens), P13569 [S492F]; experiment: Corrector activity at 3xHA-tagged full-length human CFTR S492F mutant expressed in human CFBE41o- cells assessed as restoration of plasma membrane density of channel incubated for 24 hrs in presence of VX-445 by ELISA; format: cell membranes
[22] = system: Cystic fibrosis transmembrane conductance regulator (Homo sapiens), P13569 [F508del]; experiment: Corrector activity at 3xHA-tagged full-length human CFTR F508del mutant expressed in human CFBE41o- cells assessed as functional rescue of channel by measuring anion transport measured after 24 hrs in presence of VX-809/N-(5-(4-fluorobenzyl)thiazol-2-yl)-2,5-dimethylfuran-3-carboxamide by halide-sensitive YFP quenching assay relative to combination of VX-809/N-(5-(4-fluorobenzyl)thiazol-2-yl)-2,5-dimethylfuran-3-carboxamide; format: cell-based; conditions: filed as activator
[23] = target: Cystic fibrosis transmembrane conductance regulator (Homo sapiens, UniProt P13569, F508DEL); experiment: (§1) Corrector activity at 3xHA-tagged full-length human CFTR F508del mutant expressed in human CFBE41o- cells assessed as restoration of plasma membrane density of channel incubated for 24 hrs in presence of VX-809/N-(5-(4-fluorobenzyl)thiazol-2-yl)-2,5-dimethylfuran-3-carboxamide by ELISA; format: cell membranes
[24] = system: Cystic fibrosis transmembrane conductance regulator (Homo sapiens), P13569 [F508del]; experiment: as §1; format: cell membranes; conditions: filed as activator, dose 10.0 µM
[25] = system: Cystic fibrosis transmembrane conductance regulator (Homo sapiens), P13569 [F508del]; experiment: Corrector activity at 3xHA-tagged full-length human CFTR F508del mutant expressed in human CFBE41o- cells assessed as rescue of forskolin/VX-770-induced transepithelial short-circuit current measured after 24 hrs in presence of VX-809/N-(5-(4-fluorobenzyl)thiazol-2-yl)-2,5-dimethylfuran-3-carboxamide by electrophysiological method relative to wild-type CFTR activity; format: cell-based; conditions: filed as activator
[26] = system: Cystic fibrosis transmembrane conductance regulator (Homo sapiens), P13569 [S13F]; experiment: Corrector activity at 3xHA-tagged full-length human CFTR S13F mutant expressed in human CFBE41o- cells assessed as restoration of plasma membrane density of channel incubated for 24 hrs in presence of VX-445 by ELISA; format: cell membranes
[27] = system: Cystic fibrosis transmembrane conductance regulator (Homo sapiens), P13569 [S13F]; experiment: Corrector activity at 3xHA-tagged full-length human CFTR S13F mutant expressed in human CFBE41o- cells assessed as restoration of plasma membrane density of channel in presence of N-(5-(4-fluorobenzyl)thiazol-2-yl)-2,5-dimethylfuran-3-carboxamide incubated for 24 hrs by ELISA; format: cell membranes; conditions: filed as activator
[28] = system: Cystic fibrosis transmembrane conductance regulator (Homo sapiens), P13569 [S492F]; experiment: Corrector activity at 3xHA-tagged full-length human CFTR S492F mutant expressed in human CFBE41o- cells assessed as restoration of plasma membrane density of channel in presence of VX-809 incubated for 24 hrs by ELISA; format: cell membranes; conditions: filed as activator
[29] = system: Cystic fibrosis transmembrane conductance regulator (Homo sapiens), P13569 [F508del]; experiment: Corrector activity at 3xHA-tagged full-length human CFTR F508del mutant expressed in human CFBE41o- cells assessed as […] forskolin/VX-770-induced transepithelial short-circuit current at 10 uM in presence of VX-809/N-(5-(4-fluorobenzyl)thiazol-2-yl)-2,5-dimethylfuran-3-carboxamide by electrophysiological method relative to control; format: cell-based; design: scale not given: the % may be the effect or the level left; conditions: filed as activator
[30] = system: Cystic fibrosis transmembrane conductance regulator (Homo sapiens), P13569 [F508del]; experiment: Corrector activity at 3xHA-tagged full-length human CFTR F508del mutant expressed in human CFBE41o- cells assessed as fractional plasma membrane density at 10 uM in presence of VX-809/N-(5-(4-fluorobenzyl)thiazol-2-yl)-2,5-dimethylfuran-3-carboxamide relative to forskoli-stimulated wild-type CFTR expressed in human CFBE41o- cells; format: cell membranes; conditions: filed as activator

Chain of Cystic fibrosis transmembrane conductance regulator (Homo sapiens), P13569 [S13F] (P13569 whole entry S13F): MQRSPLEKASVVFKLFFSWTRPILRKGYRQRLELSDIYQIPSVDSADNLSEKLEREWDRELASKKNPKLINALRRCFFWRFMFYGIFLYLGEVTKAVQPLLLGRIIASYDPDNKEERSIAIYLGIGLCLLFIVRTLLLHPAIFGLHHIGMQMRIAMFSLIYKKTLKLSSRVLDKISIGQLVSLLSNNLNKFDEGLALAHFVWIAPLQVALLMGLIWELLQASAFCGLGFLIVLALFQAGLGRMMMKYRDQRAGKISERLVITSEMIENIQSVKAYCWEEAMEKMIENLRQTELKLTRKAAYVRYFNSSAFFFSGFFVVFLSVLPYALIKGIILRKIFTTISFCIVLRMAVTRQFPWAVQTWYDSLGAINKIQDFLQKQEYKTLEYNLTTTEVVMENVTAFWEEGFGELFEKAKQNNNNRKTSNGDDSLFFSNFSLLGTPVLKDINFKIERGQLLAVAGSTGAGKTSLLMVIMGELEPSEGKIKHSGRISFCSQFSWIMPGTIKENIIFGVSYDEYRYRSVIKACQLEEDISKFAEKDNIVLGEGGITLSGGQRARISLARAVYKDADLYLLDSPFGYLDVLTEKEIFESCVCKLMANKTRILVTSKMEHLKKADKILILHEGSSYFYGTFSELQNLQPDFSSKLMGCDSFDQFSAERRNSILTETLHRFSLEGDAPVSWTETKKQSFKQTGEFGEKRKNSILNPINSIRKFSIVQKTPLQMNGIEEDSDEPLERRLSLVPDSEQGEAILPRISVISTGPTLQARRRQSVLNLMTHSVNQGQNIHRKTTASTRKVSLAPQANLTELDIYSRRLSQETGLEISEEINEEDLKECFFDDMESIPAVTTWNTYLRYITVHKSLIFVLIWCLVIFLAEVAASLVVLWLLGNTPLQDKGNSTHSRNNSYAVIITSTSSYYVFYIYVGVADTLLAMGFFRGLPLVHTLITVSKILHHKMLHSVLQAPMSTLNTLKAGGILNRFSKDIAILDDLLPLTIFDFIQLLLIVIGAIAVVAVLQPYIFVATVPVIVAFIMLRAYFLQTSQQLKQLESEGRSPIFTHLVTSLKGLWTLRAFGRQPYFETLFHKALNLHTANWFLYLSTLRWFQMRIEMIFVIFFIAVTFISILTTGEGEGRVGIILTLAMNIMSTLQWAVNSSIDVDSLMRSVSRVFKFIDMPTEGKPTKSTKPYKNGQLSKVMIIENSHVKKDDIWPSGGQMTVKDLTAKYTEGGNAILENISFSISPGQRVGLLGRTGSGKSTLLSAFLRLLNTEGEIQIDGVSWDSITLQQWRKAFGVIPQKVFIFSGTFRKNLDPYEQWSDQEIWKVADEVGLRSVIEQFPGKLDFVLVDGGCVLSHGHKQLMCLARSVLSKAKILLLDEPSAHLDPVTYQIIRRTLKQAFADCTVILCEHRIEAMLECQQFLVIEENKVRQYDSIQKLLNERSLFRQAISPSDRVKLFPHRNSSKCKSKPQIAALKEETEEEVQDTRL
Chain of Cystic fibrosis transmembrane conductance regulator (Homo sapiens), P13569 [N1303K] (P13569 whole entry N1303K): as the sequence (P13569 whole entry S13F) above, with F13S, N1303K counted along it
Chain of Cystic fibrosis transmembrane conductance regulator (Homo sapiens), P13569 [M1101K] (P13569 whole entry M1101K): as the sequence (P13569 whole entry S13F) above, with F13S, M1101K counted along it
Chain of Cystic fibrosis transmembrane conductance regulator (Homo sapiens), P13569 [S492F] (P13569 whole entry S492F): as the sequence (P13569 whole entry S13F) above, with F13S, S492F counted along it
Chain of Cystic fibrosis transmembrane conductance regulator (Homo sapiens), P13569 [R560T] (P13569 whole entry R560T): as the sequence (P13569 whole entry S13F) above, with F13S, R560T counted along it
Chain of Cystic fibrosis transmembrane conductance regulator (Homo sapiens), P13569 [F508del] (P13569 as listed by the source): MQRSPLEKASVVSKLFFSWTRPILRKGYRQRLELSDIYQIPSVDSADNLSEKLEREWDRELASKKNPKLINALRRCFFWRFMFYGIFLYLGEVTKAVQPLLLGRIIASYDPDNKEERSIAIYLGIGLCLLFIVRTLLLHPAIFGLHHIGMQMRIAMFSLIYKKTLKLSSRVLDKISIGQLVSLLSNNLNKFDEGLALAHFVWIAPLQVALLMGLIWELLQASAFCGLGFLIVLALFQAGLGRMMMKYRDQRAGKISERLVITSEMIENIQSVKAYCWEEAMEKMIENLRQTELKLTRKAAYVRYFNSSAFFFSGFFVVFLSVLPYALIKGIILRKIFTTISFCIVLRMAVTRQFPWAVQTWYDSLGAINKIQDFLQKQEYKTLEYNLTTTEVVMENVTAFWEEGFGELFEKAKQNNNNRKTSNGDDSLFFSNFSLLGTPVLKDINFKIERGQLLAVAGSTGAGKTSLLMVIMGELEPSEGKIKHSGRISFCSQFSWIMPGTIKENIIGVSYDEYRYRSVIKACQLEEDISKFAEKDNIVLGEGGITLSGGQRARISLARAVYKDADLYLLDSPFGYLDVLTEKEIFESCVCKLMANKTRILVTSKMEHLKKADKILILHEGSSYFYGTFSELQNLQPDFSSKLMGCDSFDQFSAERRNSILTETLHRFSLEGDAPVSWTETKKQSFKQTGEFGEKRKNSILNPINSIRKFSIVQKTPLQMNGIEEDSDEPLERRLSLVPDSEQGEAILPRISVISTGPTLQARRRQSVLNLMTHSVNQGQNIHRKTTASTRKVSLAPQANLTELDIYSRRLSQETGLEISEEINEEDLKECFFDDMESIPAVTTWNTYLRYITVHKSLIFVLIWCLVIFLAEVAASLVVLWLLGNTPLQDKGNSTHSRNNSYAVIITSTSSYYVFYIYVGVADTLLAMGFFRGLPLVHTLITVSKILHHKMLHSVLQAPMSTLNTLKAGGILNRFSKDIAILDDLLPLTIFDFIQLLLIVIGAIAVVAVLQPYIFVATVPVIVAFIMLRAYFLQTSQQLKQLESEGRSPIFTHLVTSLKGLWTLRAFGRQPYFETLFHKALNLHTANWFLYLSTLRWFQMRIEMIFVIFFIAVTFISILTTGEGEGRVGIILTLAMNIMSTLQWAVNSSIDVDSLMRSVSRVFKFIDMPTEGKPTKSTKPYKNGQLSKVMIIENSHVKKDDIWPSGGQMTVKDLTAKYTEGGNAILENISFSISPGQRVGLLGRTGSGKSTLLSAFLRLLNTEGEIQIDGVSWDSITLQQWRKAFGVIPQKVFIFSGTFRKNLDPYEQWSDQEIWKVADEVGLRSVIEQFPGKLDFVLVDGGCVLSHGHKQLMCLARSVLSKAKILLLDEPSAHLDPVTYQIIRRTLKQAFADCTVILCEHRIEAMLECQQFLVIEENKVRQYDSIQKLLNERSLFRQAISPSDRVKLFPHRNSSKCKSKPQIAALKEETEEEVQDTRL
Chain of Cystic fibrosis transmembrane conductance regulator (P13569 as listed by the source): as above

SMILES | Activity [1] | Activity [3] | Activity [4] | Activity [5] | Activity [7] | Activity [8] | Activity [9] | Activity [10] | Activity [11] | Activity [13] | Activity [14] | Activity [15] | Activity [17] | Activity [18] | Activity [19] | Activity [21] | Activity [22] | EC50 [23] | Activity [24] | Activity [26] | further results
Cc1nc(-n2nc(-c3ccccc3)cc2NC(=O)C2(c3ccc(Cl)cc3)CCCC2)[nH]c(=O)c1C | 102% |  |  |  |  |  |  |  |  |  |  |  |  |  |  |  |  |  |  |  | 
CC(C)(Oc1ccc(Cl)cc1)C(=O)Nc1cc(-c2cccs2)nn1-c1nc2c(c(=O)[nH]1)CCCC2 |  | Active | Active | Active | Active | Active | 15% | inactive | Active | Active | 15% | Active | Active | inactive | inactive | inactive | 250% | 6.16 µM | Dose-Dependent Effect | inactive | Activity [2]: 50%; Activity [6]: Active; Activity [12]: Active; Activity [16]: Active; inhibition [20]: inactive; Activity [25]: 80%; Activity [27]: Active; Activity [28]: Active
O=C(Nc1cc(-c2cccs2)nn1-c1nc2c(c(=O)[nH]1)CCCC2)C1(c2ccc(Cl)cc2)CCCC1 |  | Active | Active | Active | Active | Active | 15% | inactive | Active | Active | 15% | Active | Active | inactive | inactive | inactive | 250% | 3.05 µM | Dose-Dependent Effect | inactive | Activity [2]: 50%; Activity [6]: Active; Activity [12]: Active; Activity [16]: Active; Activity [29]: -14%; Activity [25]: 80%; Activity [30]: 84%; Activity [27]: Active; Activity [28]: Active
Cc1cc(=O)[nH]c(-n2nc(-c3ccccc3)cc2NC(=O)C2(c3ccc(Cl)cc3)CCCC2)n1 | 67% |  |  |  |  |  |  |  |  |  |  |  |  |  |  |  |  |  |  |  | 
Cc1nc(-n2nc(-c3cccs3)cc2NC(=O)C2(c3ccc(Cl)cc3)CCCC2)[nH]c(=O)c1C | 95% | Active | Active | Active | Active | Active | 15% | inactive | Active | Active | 15% | Active | Active | inactive | inactive | inactive | 250% | 1.79 µM | Dose-Dependent Effect | inactive | Activity [29]: -25%; Activity [30]: 68%; Activity [27]: Active; Activity [28]: Active
